Reference: patent publication US8716292B2, “Riminophenazines with 2-(heteroaryl)amino substituents and their anti-microbial activity” (priority 2010, dated 2014)
≈ marks a conversion by molar mass, not a printed value.

Test system: Mycobacterium tuberculosis H37Rv strains
Experiment: In vitro assay for antimicrobial susceptibility (microplate Alamar blue MIC)
Type: cell-based
Conditions: Mycobacterium tuberculosis, H37RV, 7H9, Alamar blue, inhibition ≧90%; read-out: MIC (μg/mL) against H37Rv

In order of rising MIC:
1. CC(C)/N=c1\cc2n(-c3ccc(OC(F)(F)F)cc3)c3ccccc3nc-2cc1Nc1cnccn1 [TBI-953, 5-(4-Trifluoromethoxyphenyl)-3-(1-methylethyl)imino-2-(pyrazin-2-yl)amino-3,5-dihydrophenazine]  0.015 µg/mL (≈ 0.0306 µM)
2. CC(C)/N=c1\cc2n(-c3ccc(F)cc3)c3ccccc3nc-2cc1Nc1ncccc1[N+](=O)[O-] [TBI-1052, 5-(4-Fluorophenyl)-3-(1-methylethyl)imino-2-(3-nitro-2-pyridyl)amino-3,5-dihydrophenazine]  0.022 µg/mL (≈ 0.047 µM)
3. O=[N+]([O-])c1cccnc1Nc1cc2nc3ccccc3n(-c3ccc(F)cc3)c-2c/c1=N\C1CCOCC1 [TBI-1088, 5-(4-Fluorophenyl)-3-(4-tetrahydropyranyl)imino-2-(3-nitro-2-pyridyl)amino-3,5-dihydrophenazine]  0.028 µg/mL (≈ 0.0548 µM)

Same assay, conditions: Mycobacterium tuberculosis, H37RV, in vitro, Mycobacterium tuberculosis H37Rv strains; read-out: MIC (μg/mL) against H37Rv

In order of rising MIC:
1. Cc1ncccc1Nc1cc2nc3ccccc3n(-c3ccc(C(F)(F)F)cc3)c-2c/c1=N\C1CCOCC1 [TBI-707, 5-(4-Trifluoromethylphenyl)-3-(4-tetrahydropyranyl)imino-2-(2-methyl-3-pyridyl)amino-3,5-dihydrophenazine]  0.011 µg/mL (≈ 0.0208 µM)
2. Cc1cncc(Nc2cc3nc4ccccc4n(-c4ccc(F)cc4)c-3c/c2=N\C2CC2)c1 [TBI-1030, 5-(4-Fluorophenyl)-3-cyclopropylimino-2-(5-methyl-3-pyridyl)amino-3,5-dihydrophenazine]  0.012 µg/mL (≈ 0.0276 µM)
3. Cc1ncccc1Nc1cc2nc3ccccc3n(-c3ccc(C(F)(F)F)cc3)c-2c/c1=N\C1CCC1 [TBI-734, 5-(4-Trifluoromethylphenyl)-3-cyclobutylimino-2-(2-methyl-3-pyridyl)amino-3,5-dihydrophenazine]  0.014 µg/mL (≈ 0.028 µM)
4. COc1ncccc1Nc1cc2nc3ccccc3n(-c3ccc(C)cc3)c-2c/c1=N\C1CCN(C)CC1 [TBI-313, 5-(4-Methylphenyl)-3-(N-methyl-4-piperidyl)imino-2-(2-methoxy-3-pyridyl)amino-3,5-dihydrophenazine]  0.016 µg/mL (≈ 0.0317 µM)
5. Cc1ccc(Nc2cc3nc4cc(F)ccc4n(-c4ccc(Cl)c(Cl)c4)c-3c/c2=N\C2CC2)cn1 [TBI-888]  0.028 µg/mL (≈ 0.0555 µM)
6. Cc1ncccc1Nc1cc2nc3ccccc3n(-c3ccc(F)cc3)c-2c/c1=N\C(C)C [TBI-693, 5-(4-Fluorophenyl)-3-(1-methylethyl)imino-2-(2-methyl-3-pyridyl)amino-3,5-dihydrophenazine]  0.03 µg/mL (≈ 0.0686 µM)
7. COc1ncccc1Nc1cc2nc3ccccc3n(-c3ccc(Br)cc3)c-2c/c1=N\C1CCC(OC)CC1 (centres unmarked) [TBI-521, 5-(4-Bromophenyl)-3-(4-methoxycyclohexyl)imino-2-(2-methoxy-3-pyridyl)amino-3,5-dihydrophenazine]  0.031 µg/mL (≈ 0.053 µM)
8. COc1ncccc1Nc1cc2nc3ccccc3n(-c3ccc(C)cc3)c-2c/c1=N\C1CCC1 [TBI-344, 5-(4-Methylphenyl)-3-cyclobutylimino-2-(2-methoxy-3-pyridyl)amino-3,5-dihydrophenazine]  0.04 µg/mL (≈ 0.0867 µM)
9. Cc1cncc(Nc2cc3nc4ccccc4n(-c4ccccc4)c-3c/c2=N\C2CCOCC2)c1 [TBI-083, 5-Phenyl-3-(4-tetrahydropyranyl)imino-2-(5-methyl-3-pyridyl)amino-3,5-dihydrophenazine]  0.049 µg/mL (≈ 0.106 µM)
10. COc1ncccc1Nc1cc2nc3ccccc3n(-c3ccc(Cl)cc3Cl)c-2c/c1=N\C1CC1 [TBI-370, 5-(2,4-Dichlorophenyl)-3-cyclopropylimino-2-(2-methoxy-3-pyridyl)amino-3,5-dihydrophenazine]  0.052 µg/mL (≈ 0.104 µM)
11. CC(C)/N=c1\cc2n(-c3ccc(Cl)c(Cl)c3)c3ccccc3nc-2cc1Nc1cccnc1 [TBI-336, 5-(3,4-Dichlorophenyl)-3-(1-methylethyl)imino-2-(3-pyridyl)amino-3,5-dihydrophenazine]  0.055 µg/mL (≈ 0.116 µM)
12. Cc1ccc(-n2c3c/c(=N\C4CCN(CC(C)C)CC4)c(Nc4cccnc4C)cc-3nc3ccccc32)cc1 [TBI-325, 5-(4-Methylphenyl)-3-(N-isobutyl-4-piperidyl)imino-2-(2-methyl-3-pyridyl)amino-3,5-dihydrophenazine]  0.056 µg/mL (≈ 0.106 µM)
13. Cc1ccc(-n2c3c/c(=N\C4CCOCC4)c(Nc4cccnc4C)cc-3nc3ccccc32)cc1 [TBI-323, 5-(4-Methylphenyl)-3-(4-tetrahydropyranyl)imino-2-(2-methyl-3-pyridyl)amino-3,5-dihydrophenazine]  0.057 µg/mL (≈ 0.12 µM)
14. COc1ncccc1Nc1cc2nc3ccccc3n(-c3ccc(Cl)cc3)c-2c/c1=N\CCN1CCOCC1 [TBI-439, 5-(4-Chlorophenyl)-3-(2-morpholinoethyl)imino-2-(2-methoxy-3-pyridyl)amino-3,5-dihydrophenazine]  0.06 µg/mL (≈ 0.111 µM)
15. c1ccc(-n2c3c/c(=N\C4CCOCC4)c(Nc4cccnc4)cc-3nc3ccccc32)cc1 [TBI-058, 5-Phenyl-3-(4-tetrahydropyranyl)imino-2-(3-pyridyl)amino-3,5-dihydrophenazine]  0.06 µg/mL (≈ 0.134 µM)
16. COCC(C/N=c1\cc2n(-c3ccc(Cl)cc3)c3ccccc3nc-2cc1Nc1cccnc1OC)OC (centres unmarked) [TBI-872, 5-(4-Chlorophenyl)-3-(2,3-dimethoxy-1-propyl)imino-2-(2-methoxy-3-pyridyl)amino-3,5-dihydrophenazine]  0.06 µg/mL (≈ 0.113 µM)
17. Fc1ccc(-n2c3c/c(=N\C4CCOCC4)c(Nc4cccnc4)cc-3nc3ccccc32)cc1 [TBI-681, 5-(4-Fluorophenyl)-3-(4-tetrahydropyranyl)imino-2-(3-pyridyl)amino-3,5-dihydrophenazine]  0.06 µg/mL (≈ 0.129 µM)
18. COc1ncccc1Nc1cc2nc3ccccc3n(-c3ccccc3)c-2c/c1=N\C1CCN(C)CC1 [TBI-062, 5-Phenyl-3-(N-methyl-4-piperidyl)imino-2-(2-methoxy-3-pyridyl)amino-3,5-dihydrophenazine]  0.061 µg/mL (≈ 0.124 µM)
19. Cc1ccc(Nc2cc3nc4cc(F)ccc4n(-c4ccc(OC(F)(F)F)cc4)c-3c/c2=N\C(C)C)cn1 [TBI-863, 8-Fluoro-5-(4-trifluoromethoxyphenyl)-3-(1-methylethyl)imino-2-(6-methyl-3-pyridyl)amino-3,5-dihydrophenazine]  0.061 µg/mL (≈ 0.117 µM)
20. COc1ncccc1Nc1cc2nc3ccc(F)cc3n(-c3ccc(OC(F)(F)F)cc3)c-2c/c1=N\C(C)C [TBI-858, 7-Fluoro-5-(4-trifluoromethoxyphenyl)-3-(1-methylethyl)imino-2-(2-methoxy-3-pyridyl)amino-3,5-dihydrophenazine]  0.08 µg/mL (≈ 0.149 µM)
21. COC1CCC(/N=c2\cc3n(-c4ccc(Br)cc4)c4ccccc4nc-3cc2Nc2ccc(C)nc2)CC1 (centres unmarked) [TBI-503, 5-(4-Bromophenyl)-3-(4-methoxycyclohexyl)imino-2-(6-methyl-3-pyridyl)amino-3,5-dihydrophenazine]  0.097 µg/mL (≈ 0.171 µM)
22. Cc1ccc(-n2c3c/c(=N\C(C)C)c(Nc4cncc(C)c4)cc-3nc3ccccc32)cc1 [TBI-327, 5-(4-Methylphenyl)-3-(1-methylethyl)imino-2-(5-methyl-3-pyridyl)amino-3,5-dihydrophenazine]  0.109 µg/mL (≈ 0.251 µM)
23. COc1ccc(Nc2cc3nc4ccccc4n(-c4ccc(C(F)(F)F)cc4)c-3c/c2=N\C2CCCCC2)cn1 [TBI-732]  0.113 µg/mL (≈ 0.208 µM)
24. Cc1cncc(Nc2cc3nc4ccccc4n(-c4ccccc4)c-3c/c2=N\C(C)C)c1 [TBI-081, 5-Phenyl-3-(1-methylethyl)imino-2-(5-methyl-3-pyridyl)amino-3,5-dihydrophenazine]  0.117 µg/mL (≈ 0.279 µM)
25. COCC(COC)/N=c1\cc2n(-c3ccc(C)cc3)c3ccccc3nc-2cc1Nc1ccc(C)nc1 [TBI-374, 5-(4-Methylphenyl)-3-(1,3-dimethoxyisopropyl)imino-2-(6-methyl-3-pyridyl)amino-3,5-dihydrophenazine]  0.125 µg/mL (≈ 0.253 µM)
26. Cc1ccc(-n2c3c/c(=N\C4CCN(C5CCCC5)CC4)c(Nc4cccnc4)cc-3nc3ccccc32)cc1 [TBI-307, 5-(4-Methylphenyl)-3-(N-cyclopentyl-4-piperidyl)imino-2-(3-pyridyl)amino-3,5-dihydrophenazine]  0.125 µg/mL (≈ 0.236 µM)
27. Cc1ccc(Nc2cc3nc4ccccc4n(-c4cccc(Cl)c4)c-3c/c2=N\C2CCCCC2)cn1 [TBI-80B, 5-(3-Chlorophenyl)-3-cyclohexylimino-2-(6-methyl-3-pyridyl)amino-3,5-dihydrophenazine]  0.125 µg/mL (≈ 0.253 µM)
28. COc1ccc(Nc2cc3nc4ccccc4n(-c4ccc(C(F)(F)F)cc4)c-3c/c2=N\C2CCC(OC)CC2)cn1 (centres unmarked) [TBI-735, 5-(4-Trifluoromethylphenyl)-3-(4-methoxycyclohexyl)imino-2-(6-methoxy-3-pyridyl)amino-3,5-dihydrophenazine]  0.186 µg/mL (≈ 0.324 µM)
29. COc1ccc(Nc2cc3nc4ccccc4n(-c4ccc(C(F)(F)F)cc4)c-3c/c2=N\C2CC2)cn1 [TBI-736, 5-(4-Trifluoromethylphenyl)-3-cyclopropylimino-2-(6-methoxy-3-pyridyl)amino-3,5-dihydrophenazine]  0.224 µg/mL (≈ 0.447 µM)
30. COc1ccc(Nc2cc3nc4ccccc4n(-c4ccccc4)c-3c/c2=N\C2CCC(OC)CC2)cn1 (centres unmarked) [TBI-514, 5-Phenyl-3-(4-methoxycyclohexyl)imino-2-(6-methoxy-3-pyridyl)amino-3,5-dihydrophenazine]  0.243 µg/mL (≈ 0.481 µM)
31. COc1ncccc1Nc1cc2nc3ccccc3n(-c3ccc(F)cc3)c-2c/c1=N\C1CCC(O)CC1 (centres unmarked) [TBI-1008, 5-(4-Fluorophenyl)-3-(4-hydroxycyclohexyl)imino-2-(2-methoxy-3-pyridyl)amino-3,5-dihydrophenazine]  0.248 µg/mL (≈ 0.487 µM)
32. CN1CCC(/N=c2\cc3n(-c4ccc(OC(F)(F)F)cc4)c4ccccc4nc-3cc2Nc2cccnc2)CC1 [TBI-159, 5-(4-Trifluoromethoxyphenyl)-3-(N-methyl-4-piperidyl)imino-2-(3-pyridyl)amino-3,5-dihydrophenazine]  0.25 µg/mL (≈ 0.459 µM)
33. COC1CCC(/N=c2\cc3n(-c4ccc(NC(C)=O)cc4)c4ccccc4nc-3cc2Nc2ccc(C)nc2)CC1 (centres unmarked) [TBI-1229]  0.482 µg/mL (≈ 0.882 µM)
34. Cc1cncc(Nc2cc3nc4ccccc4n(-c4ccccc4)c-3c/c2=N\C2CCC(O)CC2)c1 (centres unmarked) [TBI-085, 5-Phenyl-3-(4-hydroxycyclohexyl)imino-2-(5-methyl-3-pyridyl)amino-3,5-dihydrophenazine]  0.5 µg/mL (≈ 1.05 µM)
35. COc1ncccc1Nc1cc2nc3ccccc3n(-c3ccc(NC(C)=O)cc3)c-2c/c1=N\C1CCC(OC)CC1 (centres unmarked) [TBI-1222, 5-(4-Acetamidophenyl)-3-(4-methoxycyclohexyl)imino-2-(2-methoxy-3-pyridyl)amino-3,5-dihydrophenazine]  0.925 µg/mL (≈ 1.64 µM)
